Source: article PMC3888668 (Biological psychiatry, 2008)
Structures can show the parent of a compound that is named as a salt. Where two headings read alike, the source gives them in different places. Marks after values point to notes of the source that are not given here.

Key:
[1] = system: low-ethanol–consuming rats; experiment: Continuous-access 10% ethanol two-bottle-choice drinking paradigm; conditions: for Preference for Ethanol: continuous access to 10% ethanol, mean ± SEM, n = 12
[2] = system: high-ethanol–consuming rats; conditions: for Preference for Ethanol: intermittent access to 20% ethanol, 24 hours, mean ± SEM, n = 12; for Ethanol consumption compared with vehicle: after 24 hours of ethanol access, intermittent access 20% ethanol; for Ethanol intake after 30 min: after 30 min of ethanol access, Figures 2A-2C in Supplement 1
[3] = system: high-ethanol–consuming rats; conditions: .3–1 mg/kg, IP; 30 min and 24 hours of ethanol access; cited from earlier work
[4] = biological target: T1, DOP-R (Rattus norvegicus, UniProt P33533); assay type: biochemical; conditions: striatal membranes
[5] = biological target: μ opioid peptide receptor (MOP-R); conditions: cited from earlier work
[6] = system: rats; experiment: Morphine-mediated analgesia; assay type: in vivo, rat; conditions: Figures 1A and 1B in Supplement 1
[7] = biological target: δ opioid peptide receptor (DOP-R); conditions: cited from earlier work
[8] = Preliminary pharmacokinetics in plasma; assay type: in vivo; conditions: IP, rat plasma
[9] = system: rats; experiment: Anxiety; assay type: in vivo, rat; conditions: Figure 1D in Supplement 1
[10] = system: high-ethanol–consuming rats; experiment: Daily administration for 28 days, intermittent-access 20% ethanol, naive rats
[11] = system: rats; experiment: Conditioned place preference; assay type: in vivo, rat; conditions: Figure 1C in Supplement 1
[12] = biological target: T1, DOP-R; assay type: biochemical; conditions: [35S]GTPγS binding

T1 sequence (P33533 whole entry): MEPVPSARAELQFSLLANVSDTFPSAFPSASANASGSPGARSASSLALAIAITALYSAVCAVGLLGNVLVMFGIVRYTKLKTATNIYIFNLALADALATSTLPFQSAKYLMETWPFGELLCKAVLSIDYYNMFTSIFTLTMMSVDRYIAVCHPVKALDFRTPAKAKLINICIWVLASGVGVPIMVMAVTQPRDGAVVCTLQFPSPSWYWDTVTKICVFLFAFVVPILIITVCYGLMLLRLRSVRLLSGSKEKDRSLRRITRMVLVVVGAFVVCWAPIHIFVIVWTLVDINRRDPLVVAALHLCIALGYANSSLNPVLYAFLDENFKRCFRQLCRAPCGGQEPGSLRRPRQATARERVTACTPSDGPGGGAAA

## O=C1CC[C@@]2(O)[C@H]3Cc4ccc(O)c5c4[C@@]2(CCN3CC2CC2)[C@H]1O5 [Naltrexone]
[1]; 5 mg/kg IP, 24 hours
  Preference for Ethanol: 32.7 ± 5.9%
[1]; 15 mg/kg IP, 24 hours
  Preference for Ethanol: 33.8 ± 7.3%
[1]; 30 mg/kg IP, 24 hours
  Preference for Ethanol: 37.0 ± 4.9%
[1]; all doses (5, 15, 30 mg/kg IP), after 24 hours of access, continuous access 10% ethanol
  Ethanol consumption compared with vehicle: did not produce any significant effect on ethanol consumption
[1]; limited access period 1 hour, continuous access 10% ethanol, data not shown
  Ethanol consumption after a limited access period: a reduction in ethanol consumption was observed
[2]; 5 mg/kg IP
  Preference for Ethanol: 55.2 ± 7.1%
[2]; 15 mg/kg IP
  Preference for Ethanol: 54.1 ± 6.4%
[2]; 30 mg/kg IP
  Preference for Ethanol: 54.4 ± 4.7%
[2]; 15 and 30 mg/kg IP
  Ethanol consumption compared with vehicle: significantly reduce ethanol consumption
[2]
  Ethanol intake after 30 min: selectively reduced ethanol intake
[3]
  Ethanol intake at lower doses: reduce ethanol intake after 30 min but not after 24 hours

## Oc1ccc2c3c1O[C@H]1c4[nH]c5ccccc5c4C[C@@]4(O)[C@@H](C2)N(CC2CC2)CC[C@]314 [Naltrindole, naltrindole]
[1]; 1 mg/kg IP, 24 hours
  Preference for Ethanol: 38.2 ± 3.7%
[1]; 5 mg/kg IP, 24 hours
  Preference for Ethanol: 31.7 ± 4.0%
[1]; 10 mg/kg IP, 24 hours
  Preference for Ethanol: 31.0 ± 3.3%
[1]; 5 and 10 mg/kg IP, 24 hours, continuous access 10% ethanol
  Ethanol consumption compared with vehicle: significantly reduce ethanol consumption
[2]; 1 mg/kg IP
  Preference for Ethanol: 53.4 ± 7.9%
[2]; 5 mg/kg IP
  Preference for Ethanol: 55.1 ± 8.3%
[2]; 10 mg/kg IP
  Preference for Ethanol: 48.8 ± 6.1%
[2]; all doses tested, IP
  Ethanol consumption compared with vehicle: did not significantly affect ethanol consumption
[4]; Mean (± SEM) IC50 for Striatal DOP-R Inhibition, DPDPE Inhibition, DPDPE (10 μmol/L)-stimulated [35S]GTPγS binding
  IC50: 0.0004 ± 2e-05 µM
[4]; Mean (± SEM) IC50 for Striatal DOP-R Inhibition, SNC80 Inhibition, SNC80 (10 μmol/L)-stimulated [35S]GTPγS binding
  IC50: 0.031 ± 0.0039 µM
[4]; Mean (± SEM) IC50 for Striatal DOP-R Inhibition, TAN67 Inhibition, TAN67 (10 μmol/L)-stimulated [35S]GTPγS binding
  IC50: > 10 µM

## Oc1ccc2c3c1O[C@H]1c4ncc(-c5ccc(Cl)cc5)cc4C[C@@]4(O)[C@@H](C2)N(CC2CC2)CC[C@]314 [SoRI-9409, 5’-(4-Chlorophenyl)-17-(cyclopropylmethyl)-6,7-didehydro-3,14-dihydroxy-4,5-α-epoxypyrido-[2’,3’:6,7]morphinan]
[5]; read-out: Ki, binding affinity for the MOP-R
  Ki: 0.051 ± 0.008 µM
[5]; versus naltrexone structure
  reduced binding affinity for the MOP-R relative to naltrexone: approximately 20 fold
[6]
  Induction of analgesia and hyperalgesia: did not reduce morphine-mediated analgesia or induce analgesia and hyperalgesia
[1]; 5 mg/kg IP, 24 hours, continuous access 10% ethanol
  Ethanol consumption compared with vehicle: but not the 5-mg/kg dose
[1]; 5 mg/kg IP, 24 hours
  Preference for Ethanol: 39.5 ± 8.6%
[1]; 15 mg/kg IP, 24 hours
  Preference for Ethanol: 32.4 ± 7.3 ^b %
[1]; 30 mg/kg IP, 24 hours
  Preference for Ethanol: 24.0 ± 6.2 ^b %
[1]; 15 and 30 mg/kg IP, 24 hours, continuous access 10% ethanol
  Ethanol consumption compared with vehicle: significantly reduce ethanol consumption
[7]; read-out: Ki, binding affinity at the DOP-R
  Ki: 0.0022 ± 0.0002 µM
[7]; versus naltrexone structure
  higher binding affinity at the DOP-R relative to naltrexone: approximately 20 fold
[2]; 5 mg/kg IP
  Preference for Ethanol: 49.9 ± 7.3%
[2]; 15 mg/kg IP
  Preference for Ethanol: 42.1 ± 7.4 ^a %
[2]; 30 mg/kg IP
  Preference for Ethanol: 32.8 ± 4.9 ^a %
[2]
  Ethanol intake after 30 min: selectively reduced ethanol intake
[2]; all doses tested, IP
  Ethanol consumption compared with vehicle: significantly reduced ethanol consumption at all doses
[2]; high-ethanol–consuming animals
  Effectiveness at reducing ethanol consumption compared with naltrexone or naltrindole: threefold more effective
[4]; read-out: Mean (± SEM) IC50 for Striatal DOP-R Inhibition, DPDPE Inhibition, DPDPE (10 μmol/L)-stimulated [35S]GTPγS binding
  IC50: 0.0035 ± 0.0003 µM
[4]; read-out: Mean (± SEM) IC50 for Striatal DOP-R Inhibition, SNC80 Inhibition, SNC80 (10 μmol/L)-stimulated [35S]GTPγS binding
  IC50: 0.031 ± 0.0032 µM
[4]; read-out: Mean (± SEM) IC50 for Striatal DOP-R Inhibition, TAN67 Inhibition, TAN67 (10 μmol/L)-stimulated [35S]GTPγS binding
  IC50: 0.056 ± 0.0082 µM
[8]
  Detection in plasma after dosing: still detectable in plasma at 12 hours after dosing
[8]; preliminary investigation
  Elimination half-life: 2.5 h
[9]
  Anxiolytic or anxiogenic effect: is not anxiolytic or anxiogenic
[10]; 5 mg/kg IP daily for 28 days (12 ethanol exposures), n = 16
  Escalation and maintenance of ethanol intake compared with vehicle: significantly reduced the escalation and maintenance of ethanol intake
[10]; 5 mg/kg IP daily, for up to 28 days
  Reduction of ethanol intake compared with saline-treated rats: > 50%
[11]
  Conditioned place preference or aversion: does not produce conditioned place preference or aversion

## CN1CCC2(c3cccc(O)c3)Cc3nc4ccccc4cc3CC2C1 (stereo not drawn) [TAN67, (2-methyl-4a (α)-(3-hydroxyphenyl)-1,2,3,4,4a,5,12, 12a(α)-octahydro-quinolino[2,3,3,g]isoquinoline) dihydrobromide]
[12]; read-out: Mean (± SEM) EC50 for DOP-R Stimulation, Spinal Cord, spinal cord membranes
  EC50: 3.7 ± 2.2 µM
[12]; read-out: Mean (± SEM) EC50 for DOP-R Stimulation, Striatum, striatum membranes
  EC50: 0.372 ± 0.02 µM
